Experimental data reported in US10851043B1, “Compound for fatty acid synthase inhibition” (KANNUR UNIVERSITY, priority 2019, dated 2020).
≈ marks a conversion by molar mass, not a printed value.

Experiments:
Bacterial FAS II enzyme = test: FAS II assay (NADPH oxidation at 340 nm); type: biochemical, Bacillus subtilis; settings: for Average ΔC (change in concentration of NADPH): control 0.05037
Protocol: Crude FAS containing protein fraction was isolated according to the modified protocol of Ahmad et al. (1981). Stock culture of Bacillus subtilis was inoculated in 100 mL LB broth pH 7.2 and cultured for 24 hours at room temperature. It was used for further inoculation of four 1000 mL flasks with same media and culture conditions. The flasks were placed in a rotator shaker to ensure adequate suspension of cells. Bacteria were harvested during the late-exponential phase of growth by centrifugation at 10000×g for 10 minutes and washed twice with 50 mM sodium phosphate buffer (pH 7.0) to provide cell pastes which were stored at -20° C. until use. Frozen cell pastes (25-35 g) were thawed and suspended in 50 mM sodium phosphate buffer (pH 7.0). The cell suspension was disrupted by sonication (12 W, 6×15 pulses with 15 second intervals) in 2 mL Eppendorf tubes containing 1.5 mL of cell suspension, supplemented with lysozyme (250 μg/mL) in a sonicator, operating at maximum power output while maintaining the temperature below 4° C. Unbroken cells and cell debris were removed by centrifugation at 30000×g for 30 minutes at 4° C. The […] were re-suspended in 50 mM sodium phosphate buffer (pH 7.0) and made up to appropriate volume and subjected to ammonium sulphate precipitation. Solid ammonium sulphate was added and the protein precipitate at 40-60% saturation was collected by centrifugation, dialyzed and used for further assay. FAS assay for FAS I enzyme was performed according to a modified process of Li et al. 2002. Crude protein was made up to a concentration of 0.5 mg/mL of protein and used for the assay. Assay was carried out in 96 well plates with the final working volume of 100 μL. […] The microplate was read immediately for 10 minutes at 340 nm. FAS activity was calculated by subtracting the optical density (OD) value obtained after 1 minute from the OD value obtained after 10 minutes. FAS activity was calculated and compared with that of control and test compounds. Dimethyl sulfoxide (DMSO) was taken as control as it was used to dilute the compounds. […] The negative control consisted of protein plus reaction buffer. Another control consisted of buffer reaction without protein. The IC50 was determined by linear regression. FAS activity was determined by the rate of oxidation of NADPH to NADP which was monitored at 340 nm. The change in concentration of NADPH during oxidation was calculated using the following equation: ΔC=ΔA/E Where, ΔC was change in the concentration of NADPH, ΔA was change in absorbance, and E was extinction coefficient of NADPH ([…] nm=6.22 mM^-1·cm^-1). FAS activity was expressed as n mol NADPH oxidized/min/mg protein. Assay using partially purified enzyme from Bacillus subtilis was also performed to verify the FAS II inhibitory activity of compound of Formula II. […] The graph was plotted with change in concentration of NADP to NADPH against time. Each point in graph was the concentration of NADPH measured on a spectrophotometer at 340 nm (FIGS. 6 and 7 for FAS II and FAS I respectively).

[1] = test system: A549 lung carcinoma cells; test: In-vitro anti-proliferative property on cultured A549 cells (MTT assay); type: cell-based; settings: for IC50 / viability at 6.25 µg/mL / viability at 12.5 µg/mL / viability at 25 µg/mL / viability at 50 µg/mL / viability at 100 µg/mL: Homo sapiens; for IC50: A549, 24 h, read-out: IC50 anti-proliferative activity against A549 cells; for IC50 / IC50 anti-proliferative activity against A549 cells: MTT; for viability at 6.25 µg/mL / viability at 12.5 µg/mL / viability at 25 µg/mL / viability at 50 µg/mL / viability at 100 µg/mL / Percentage Viability / IC50 anti-proliferative activity against A549 cells: 24 hours; for viability at 6.25 µg/mL / viability at 12.5 µg/mL / viability at 25 µg/mL / viability at 50 µg/mL / viability at 100 µg/mL: read-out: Percentage Viability
Protocol: A549 lung carcinoma cells were maintained in Dulbecco's modified eagles media (Himedia, India) supplemented with 10% FBS (Invitrogen, India) and grown to confluence at 37° C. and 5% CO2 in a humidified atmosphere using a CO2 incubator (NBS, Eppendorf, Germany). The cells were trypsinized (500 μL of 0.025% trypsin in PBS/0.5 mM EDTA solution (Himedia, India) for 2 minutes and transferred to T flasks under aseptic condition. Test compounds were added to grown cells with a final concentration of 6.25, 12.5, 25, 50, 100 μg/mL from a stock of 1 mg/mL and incubated for 24 hours. The % difference in viability was determined by standard MTT assay (Arung et al. 2000) after 24 hours of incubation. Viability percentage was calculated using the Formula, % viability=(OD of Test/OD of Control)×100

[2] = test system: FAS I enzyme from bovine liver; test: FAS I assay (NADPH oxidation at 340 nm); type: biochemical, Indian water buffalo; settings: for Average ΔC (change in concentration of NADPH): control 0.051383
Protocol: Crude preparation of FAS I enzyme was made according to modified protocol of Dulter et al. (1971). Liver from freshly slaughtered Indian water buffalo was collected and transported in ice bucket and kept at 4° C. till processing. The liver was processed at the earliest by removing connective tissues and sliced into small pieces. Using a blender, about 750 g of liver was minced to form a suspension with 0.05 M potassium phosphate buffer pH 7.4 containing 1 mM EDTA to make up to a volume of 2.5 liters. The thick solution was centrifuged at 7500×g for 20 minutes to remove meat debris and the supernatant obtained was further centrifuged at 30000×g for 30 minutes to get a translucent solution. The supernatant was further diluted to specific volume using 0.05 M Potassium phosphate buffer (pH 7.4) with 1 mM EDTA and brought initially to 10% and then to 40% saturation with solid ammonium sulfate at 4° C. The 40% ammonium sulfate fraction was centrifuged and protein precipitate was re-dissolved in 0.05 mM Tris HCl buffer, pH 7.4, dialyzed against same buffer. The FAS I enzyme was further purified by ion exchange chromatography with Diethylaminoethyl (DEAE) cellulose column as described above (Dulter et al. 1971).
FAS assay for FAS I enzyme was performed according to a modified process of Li et al. 2002. Crude protein was made up to a concentration of 0.5 mg/mL of protein and used for the assay. Assay was carried out in 96 well plates with the final working volume of 100 μL. Compounds to be tested were incubated with previously made crude protein extract for 30 minutes at 25° C. 50 μL of this mixture was added to 50 of reaction mixture containing 1 mM each of malonyl CoA and Nicotinamide adenine dinucleotide phosphate (NADPH), 40 μM acetyl CoA, and 2 mM Dithiothreitol (DTT) in phosphate buffer (250 mM).
The microplate was read immediately for 10 minutes at 340 nm. FAS activity was calculated by subtracting the optical density (OD) value obtained after 1 minute from the OD value obtained after 10 minutes. FAS activity was calculated and compared with that of control and test compounds. Dimethyl sulfoxide (DMSO) was taken as control as it was used to dilute the compounds. […] The negative control consisted of protein plus reaction buffer. Another control consisted of buffer reaction without protein. The IC50 was determined by linear regression. FAS activity was determined by the rate of oxidation of NADPH to NADP which was monitored at 340 nm. The change in concentration of NADPH during oxidation was calculated using the following equation: ΔC=ΔA/E
Where, ΔC was change in the concentration of NADPH, ΔA was change in absorbance, and E was extinction coefficient of NADPH (E340 nm=6.22 mM^−1·cm^−1). FAS activity was expressed as n mol NADPH oxidized/min/mg protein.

L929 (Fibroblast cells) = test: In-vitro cytotoxic effect on cultured L929 cells (MTT assay); type: cell-based; settings: MTT, 24 hours
Protocol: (§1) Cultures of L929 (Fibroblast cells) were maintained in Dulbecco's modified eagles media supplemented with 10% fetal bovine serum (FBS) and grown to confluence at 37° C. and 5% CO2 in a humidified atmosphere using a CO2 incubator. The cells were trypsinised (500 μL of 0.025% Trypsin in PBS/0.5 mM Ethylene diamine tetraacetic acid (EDTA) solution for 2 minutes and passed to T flasks under complete aseptic conditions. Test compounds were added to grown cells at a final concentration of 6.25, 12.5, 25, 50 and 100 μg/mL from a stock of 1 mg/mL and incubated for 24 hours. The percentage difference in viability was determined by standard MTT assay after 24 hours of incubation. The MTT assay is a colorimetric assay for assessing cell metabolic activity. NAD (P) H-dependent cellular oxidoreductase enzymes under defined conditions, reflect the number of viable cells present.
(§2) Viability percentage was calculated using the Formula, % viability=(OD of Test/OD of control)×100, • where control OD was 0.993.

[3] = as above; type: cell-based; settings: mouse
Protocol: as §1, §2

[4] = target: FAS prepared from Saccharomyces cerevisiae (Saccharomyces cerevisiae, UniProt P07149+P19097); settings: Li et al. (2002), cited from earlier work
Chain of FAS prepared from Saccharomyces cerevisiae (P07149 whole entry): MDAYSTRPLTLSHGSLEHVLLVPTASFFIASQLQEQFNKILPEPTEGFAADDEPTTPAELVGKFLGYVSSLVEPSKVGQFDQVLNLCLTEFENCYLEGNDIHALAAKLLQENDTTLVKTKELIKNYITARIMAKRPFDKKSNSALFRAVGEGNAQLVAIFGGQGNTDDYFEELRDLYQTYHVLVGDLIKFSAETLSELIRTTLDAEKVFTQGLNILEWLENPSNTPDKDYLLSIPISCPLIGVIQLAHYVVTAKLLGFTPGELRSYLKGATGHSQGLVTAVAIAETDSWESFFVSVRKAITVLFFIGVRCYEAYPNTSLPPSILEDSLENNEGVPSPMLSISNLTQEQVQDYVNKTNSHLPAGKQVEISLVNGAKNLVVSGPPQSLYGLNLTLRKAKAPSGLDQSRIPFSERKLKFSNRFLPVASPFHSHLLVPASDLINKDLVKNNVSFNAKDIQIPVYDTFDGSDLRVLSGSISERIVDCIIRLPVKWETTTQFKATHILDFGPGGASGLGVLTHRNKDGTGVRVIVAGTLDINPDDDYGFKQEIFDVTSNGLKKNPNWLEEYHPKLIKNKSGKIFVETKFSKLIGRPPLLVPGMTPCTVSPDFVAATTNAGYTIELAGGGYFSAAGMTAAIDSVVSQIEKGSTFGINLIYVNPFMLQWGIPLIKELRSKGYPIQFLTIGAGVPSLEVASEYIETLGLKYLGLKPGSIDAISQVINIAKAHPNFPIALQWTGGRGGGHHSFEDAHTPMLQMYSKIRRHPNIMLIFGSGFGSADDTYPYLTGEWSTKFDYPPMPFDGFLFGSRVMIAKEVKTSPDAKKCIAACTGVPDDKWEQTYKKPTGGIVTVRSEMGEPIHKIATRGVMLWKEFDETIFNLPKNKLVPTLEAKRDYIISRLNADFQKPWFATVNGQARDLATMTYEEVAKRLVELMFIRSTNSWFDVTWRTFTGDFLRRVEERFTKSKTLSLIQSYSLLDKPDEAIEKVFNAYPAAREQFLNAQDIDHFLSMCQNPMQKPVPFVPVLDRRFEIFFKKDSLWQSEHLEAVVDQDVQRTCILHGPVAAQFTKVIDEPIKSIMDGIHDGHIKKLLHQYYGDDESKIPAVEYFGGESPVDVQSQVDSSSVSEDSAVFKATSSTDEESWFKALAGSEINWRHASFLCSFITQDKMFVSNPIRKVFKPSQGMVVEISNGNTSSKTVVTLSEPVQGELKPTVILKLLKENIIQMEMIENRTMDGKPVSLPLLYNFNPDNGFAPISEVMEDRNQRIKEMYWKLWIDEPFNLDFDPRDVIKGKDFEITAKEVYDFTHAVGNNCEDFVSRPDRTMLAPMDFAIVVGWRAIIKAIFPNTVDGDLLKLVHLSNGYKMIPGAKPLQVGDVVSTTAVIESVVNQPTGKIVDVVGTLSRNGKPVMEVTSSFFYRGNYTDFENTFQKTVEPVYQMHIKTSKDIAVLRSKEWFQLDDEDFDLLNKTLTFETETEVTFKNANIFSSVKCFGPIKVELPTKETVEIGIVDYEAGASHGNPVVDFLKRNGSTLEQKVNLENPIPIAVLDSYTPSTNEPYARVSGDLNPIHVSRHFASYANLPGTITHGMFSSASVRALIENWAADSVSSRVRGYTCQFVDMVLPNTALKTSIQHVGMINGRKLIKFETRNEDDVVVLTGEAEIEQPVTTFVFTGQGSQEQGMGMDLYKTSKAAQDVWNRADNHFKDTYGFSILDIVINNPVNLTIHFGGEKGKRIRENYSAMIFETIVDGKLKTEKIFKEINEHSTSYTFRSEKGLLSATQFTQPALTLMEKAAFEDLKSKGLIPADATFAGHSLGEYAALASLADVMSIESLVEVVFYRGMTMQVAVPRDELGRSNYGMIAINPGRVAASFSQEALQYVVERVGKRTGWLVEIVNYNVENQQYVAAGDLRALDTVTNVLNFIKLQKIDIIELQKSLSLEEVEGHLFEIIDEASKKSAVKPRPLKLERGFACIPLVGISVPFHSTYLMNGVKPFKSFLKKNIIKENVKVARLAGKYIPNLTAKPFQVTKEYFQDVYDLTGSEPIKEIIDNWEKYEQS
Chain of FAS prepared from Saccharomyces cerevisiae (P19097 whole entry): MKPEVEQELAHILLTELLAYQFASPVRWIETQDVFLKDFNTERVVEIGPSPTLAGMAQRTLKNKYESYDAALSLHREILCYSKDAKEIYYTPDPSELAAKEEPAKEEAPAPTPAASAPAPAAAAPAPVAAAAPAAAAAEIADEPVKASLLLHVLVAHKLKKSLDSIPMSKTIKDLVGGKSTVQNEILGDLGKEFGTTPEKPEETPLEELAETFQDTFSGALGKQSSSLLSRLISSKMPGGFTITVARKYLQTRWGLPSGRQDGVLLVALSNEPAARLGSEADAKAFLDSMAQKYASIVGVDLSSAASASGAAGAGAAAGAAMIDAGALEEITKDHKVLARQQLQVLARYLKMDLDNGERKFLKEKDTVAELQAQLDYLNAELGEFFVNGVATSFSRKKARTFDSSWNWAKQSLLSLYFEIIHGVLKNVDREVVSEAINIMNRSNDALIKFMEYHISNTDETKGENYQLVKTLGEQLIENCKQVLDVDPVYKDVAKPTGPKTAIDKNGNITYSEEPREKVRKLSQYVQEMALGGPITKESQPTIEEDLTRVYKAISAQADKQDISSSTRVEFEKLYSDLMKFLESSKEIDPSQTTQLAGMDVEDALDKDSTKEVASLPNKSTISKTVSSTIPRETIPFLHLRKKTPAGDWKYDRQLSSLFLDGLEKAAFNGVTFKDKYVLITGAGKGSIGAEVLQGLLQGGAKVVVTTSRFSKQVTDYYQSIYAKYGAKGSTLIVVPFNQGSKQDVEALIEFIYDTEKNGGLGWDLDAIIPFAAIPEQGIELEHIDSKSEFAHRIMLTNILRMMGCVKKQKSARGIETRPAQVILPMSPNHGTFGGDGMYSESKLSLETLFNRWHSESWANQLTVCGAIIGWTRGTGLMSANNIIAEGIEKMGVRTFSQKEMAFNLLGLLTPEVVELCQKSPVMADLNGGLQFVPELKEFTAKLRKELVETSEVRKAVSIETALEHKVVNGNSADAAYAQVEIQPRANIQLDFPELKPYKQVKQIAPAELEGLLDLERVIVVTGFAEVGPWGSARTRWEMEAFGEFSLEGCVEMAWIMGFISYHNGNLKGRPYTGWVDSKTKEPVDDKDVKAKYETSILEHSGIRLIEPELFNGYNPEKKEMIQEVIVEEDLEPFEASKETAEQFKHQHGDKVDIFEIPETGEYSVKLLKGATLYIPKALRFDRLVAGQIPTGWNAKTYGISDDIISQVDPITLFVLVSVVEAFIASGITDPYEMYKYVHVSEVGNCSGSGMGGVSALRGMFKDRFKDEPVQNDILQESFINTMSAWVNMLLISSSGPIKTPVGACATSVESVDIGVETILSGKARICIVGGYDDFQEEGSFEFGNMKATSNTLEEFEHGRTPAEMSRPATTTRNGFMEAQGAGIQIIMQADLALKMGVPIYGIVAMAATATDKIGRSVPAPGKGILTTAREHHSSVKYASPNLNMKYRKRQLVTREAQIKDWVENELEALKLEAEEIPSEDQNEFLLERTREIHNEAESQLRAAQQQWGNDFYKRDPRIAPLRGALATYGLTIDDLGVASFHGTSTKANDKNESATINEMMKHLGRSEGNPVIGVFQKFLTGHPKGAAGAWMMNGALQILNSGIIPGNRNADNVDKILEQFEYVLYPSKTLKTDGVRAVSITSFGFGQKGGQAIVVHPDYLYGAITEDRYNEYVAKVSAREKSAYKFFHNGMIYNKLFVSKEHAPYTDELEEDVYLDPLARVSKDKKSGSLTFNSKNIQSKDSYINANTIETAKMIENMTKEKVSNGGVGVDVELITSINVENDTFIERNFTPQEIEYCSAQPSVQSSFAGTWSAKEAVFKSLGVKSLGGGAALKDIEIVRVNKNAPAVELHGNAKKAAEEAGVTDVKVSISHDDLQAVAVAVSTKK

Row | Compound | Inhibition compared to control (Bacterial FAS II enzyme) | Average ΔC (change in concentration of NADPH) (Bacterial FAS II enzyme) | IC50 [1] | viability at 6.25 µg/mL ([1]; A549, 6.25 μg/mL) | viability at 12.5 µg/mL ([1]; A549, 12.5 μg/mL) | viability at 25 µg/mL ([1]; A549, 25 μg/mL) | viability at 50 µg/mL ([1]; A549, 50 μg/mL) | viability at 100 µg/mL ([1]; A549, 100 μg/mL) | Inhibition compared to control [2] | Average ΔC (change in concentration of NADPH) [2] | IC50 anti-proliferative activity against A549 cells [1] | other results
1 | C/C=C/C/C=C/CCC(=O)[C@H]1O[C@H]1C(N)=O [Cerulenin] | 21.48% | 0.03955 | 86.4 µg/mL (≈ 387 µM) | 100% | 96.9% | 72% | 62.2% | 48.1% | 36.49% | 0.03248 |  | 
2 | C=C1C(=O)OC(CCCCCCCC)C1C(=O)O (stereo not drawn) [C75] | 15.67% | 0.04248 |  |  |  |  |  |  | 29.60% | 0.03612 | 99.034 µg/mL (≈ 389 µM) | Percentage Viability ([1]; A549, 6.25 μg/mL): 100.0%; Percentage Viability ([1]; A549, 12.5 μg/mL): 100.0%; Percentage Viability ([1]; A549, 25 μg/mL): 80.110%; Percentage Viability ([1]; A549, 50 μg/mL): 66.483%; Percentage Viability ([1]; A549, 100 μg/mL): 55.985%
3 | CC(C)[C@H](O)C(=O)/C(O)=C/[C@@H](N)/C=C\CCCC[C@H]1C=C[C@@H](O)C=C1 [Compound of Formula II, (3S,5Z,7S,8Z)-7-amino-3,5-dihydroxy-2-methyl-13-[(1s,4s)-4-hydroxycyclohexa-2,5-dien-1-yl]trideca-5,8-dien-4-one] | 30.54% | 0.03498 | 74 to 78 µg/mL | 92.3% | 89.7% | 67.4% | 55.7% | 42.6% | 41.49% | 0.03006 | 76.034 µg/mL | LD50 against L929 cell lines (L929 (Fibroblast cells)): about 89.65 μg/mL; viability at 24 h, 6.25 μg/mL [3]: 90.8%; viability at 24 h, 12.5 μg/mL [3]: 85.8%; viability at 24 h, 25 μg/mL [3]: 74.7%; viability at 24 h, 50 μg/mL [3]: 64.3%; viability at 24 h, 100 μg/mL [3]: 55.8%
4 | C[C@@H]1O[C@@H](Oc2cc3c(=O)oc4c(O)c(O)cc5c(=O)oc(c2O)c3c45)[C@H](O)[C@H](O)[C@H]1O [ellagic acid 4-O-alpha-1-rhamnopyranoside] |  |  |  |  |  |  |  |  |  |  |  | IC50 against FAS [4]: 7.5 microgram/mL
5 | O=Cc1cc(-c2coc3cc(O)cc(O)c3c2=O)ccc1O [3′-Formylgenistein] |  |  |  |  |  |  |  |  |  |  |  | IC50 ([4]; read-out: IC50 against FAS (converted)): 7.71 µM
